Entries after “also recorded” stand apart in the source; their conditions may differ.
Experiments:
[1] = test system: MV4-11 (MLL-AF4) cells; assay: Combination proliferation assay with Compound A2 (CellTiter-Glo, Chou-Talalay CI); format: cell-based, human
Summary of the method: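 Viability by CellTiter-Glo ATP luminescence; fraction affected versus DMSO controls; combination index by Chou-Talalay method (CI <1 synergy, >1 antagonism).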

[2] = test system: SKM-1 (non-MLL-rearranged AML) cells; assay: as above; format: cell-based, human
Experimental: (§1) Graphs representing values of combination index (CI) versus Fractional effect (Fa) known as Fa-CI plots were generated and synergy was evaluated.
(§2) Viability was determined using CellTiter-Glo® (Promega).
MV4-11 cells were maintained in IMDM supplemented with 10% fetal bovine serum. MOLM-13 and SKM-1 cells were maintained in Roswell Park Memorial Institute medium (RPMI) supplemented with 10% fetal bovine serum. They were cultured in flasks or plates in a humidified 5% CO2 atmosphere.
Proliferation studies were performed using MOLM-13, MV4-11 and SKM-1 cell lines in vitro to evaluate the cancer cell killing effect of a combination of two agents together on cell growth. Initial proliferation studies were performed to determine the IC50 values of a given compound in each cell line. The cell counts were measured by ATP quantitation using the Promega Cell Titer Glo kit and luminescence values correspond to the amount of ATP in a given well.
Compounds evaluated for synergy in the co-treatment phase were tested in a range which was bracketed around the IC50's. The compounds were plated to a 96 well plate in a matrix format which includes increasing concentrations of each drug in the combination in a constant ratio, in addition to the effect of each compound alone in the study. Cells were seeded and grown in the log-linear phase for 3 or 7 days in the cotreatment phase. Maximum and minimum inhibition (DMSO alone) controls were used in each plate to calculate fraction affected (Fa) of a test well. DMSO concentration was kept at 0.1% v/v. The drug combination analysis was performed utilizing the Chou-Talalay method. Synergy was determined using the software package Calcusyn by Biosoft. The combination index (CI) is the term used to describe the level of synergy or antagonism in a given test system. A combination index less than one indicates synergy, and a CI greater than one indicates antagonism.
The drug combination analysis was performed using the Chou-Talalay method. Graphs representing values of combination index (CI) versus Fractional effect (Fa) known as Fa-CI plots were generated and synergy was evaluated.

[3] = test system: MOLM-13 (MLL-AF9) cells; assay: as above; format: cell-based, human; settings: for Combination effect, reverse order of addition with Ara-C washout: washed out, then Compound A2 7 days; for Combination effect with Compound A2 (Table 2): MOLM-13 MLL-AF9
Summary of the method: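 Viability by CellTiter-Glo ATP luminescence; fraction affected versus DMSO controls, combination index by Chou-Talalay (CI <1 synergy, >1 antagonism).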

[4] = test system: MOLM-13 cells; assay: CD11b and CD14 differentiation marker expression by flow cytometry; format: cell-based, human; settings: single agents
Experimental: (§3) A Guava EasyCyte HT™ flow cytometer was used to measure DNA content, Annexin V staining and cell surface expression of CD14 and CD11b markers on Days 10 and 14.
(§4) On Day 0 MOLM-13 cells are seeded at 3,000 cells/mL. On Day 7 and Day 10 MOLM-13 cells are counted and reseeded at 50,000 cells/mL. […] On Day 10 They were redosed again. On Day 14 the experiment was terminated. Cells were sampled for CD14 and CD11b analysis on Days 7, 10 and 14.
On day 7, 10, and 14, cells were collected for analysis. The cells were prepared by washing twice in PBS, followed by fixation in 4% formaldehyde for ten minutes at 37° C. After fixation cells were washed and blocked with blocking buffer for 10 minutes at room temperature. Cells were then incubated in presence of anti-CD14, anti-CD11b or anti-IgG antibody for 1 hour at room temperature while rotating. Cells were washed, re-suspended in PBS and 5,000 events were analyzed using ExpressPro software on the GuavaCyte Plus System.

[5] = test system: KOPM-88 (MLL-PTD) cells; assay: Combination proliferation assay with Compound A2 (Chou-Talalay CI); format: cell-based, human; settings: KOPM-88 (MLL-PTD)
Experimental: as §1, §2

[6] = test system: EOL-1 (MLL-PTD) cells; assay: as above; format: cell-based, human; settings: EOL-1 (MLL-PTD)
Experimental: as §1, §2

[7] = test system: MOLM-13 cells; assay: Flow cytometric analysis of cell cycle and Annexin V (apoptosis); format: cell-based, human
Experimental: as §3, §4
To evaluate the fraction of cells in each cell cycle, flow cytometric analysis was performed. FACS analysis for detection of cell death by apoptosis, and cell cycle was performed.
Cells were harvested on days 7, 10 and 14 and split to allow simultaneous analysis of cell cycle and Annexin V staining. Apoptosis was determined using the Guava Nexin Assay (Millipore 4500-0450) and cells were prepared according to the manufacturer's recommendations. Samples were analyzed using the Guava EasyCyte Plus System (Millipore). Cells for cell cycle analysis were pelleted by centrifugation at 200×g for 5 minutes at 4° C., washed twice with ice cold PBS then fixed with 70% ice cold ethanol. All samples were analyzed together at end of experiment. Following fixation cells were washed with PBS and stained with the Guava cell cycle reagent (Millipore 4500-0220) for 30 minutes. Samples were analyzed using the Guava EasyCyte Plus System (Millipore).

[8] = test system: OCI-AML-4 (MLL-ENL) cells; assay: Example 7 retest: EPZ-5676 pre-treatment, second compound 72 h, Cell Titer Glo, growth inhibition; format: cell-based; settings: 240 h, single agent
[9] = test system: OCI-AML-4 (MLL-ENL) cells; assay: Example 7 primary screen: 300 nM EPZ-5676 pre-treatment, second compound 72 h, ATPLite, GI100 shift; format: cell-based; settings: 264 h; OCI-AML-4; single agent; read-out: EPZ-5676 11-day (Primary screen) IC50
Experimental: Cells were split using EPZ-5676 or DMSO containing growth media and further incubated for an additional 3-day pre-treatment time. Cells were finally seeded in growth media containing EPZ-5676 or DMSO in 384-well plates at 500 cell/well density. Cells were then equilibrated in incubators for 24 hours before treatment with a second compound. Treated assay plates were incubated with a second compound for 72 hours. After this time, plates were developed for endpoint analysis using ATPLite to measure ATP content, which is used as an indicator of cell viability.
“N/D” means the GI100 of the second compound could not be determined for both conditions and “-” means not tested.
Growth Inhibition (GI) as a measure of cell viability: The cell viability of vehicle was measured at the time of dosing the second agent (T0) and after seventy-two hours (T72). A GI reading of 0% represents no growth inhibition—cells treated with test compound as compared to T72 vehicle signals were measured. […] A GI 200% represents complete death of all cells in the culture well. Compounds reaching an activity plateau of GI 200% are considered cytotoxic. GI is calculated by applying the following test and equation: […]

[10] = test system: THP-1 (MLL-AF9) cells; assay: Example 7 retest: EPZ-5676 pre-treatment, second compound 72 h, Cell Titer Glo, growth inhibition; format: cell-based; settings: 240 h, single agent, read-out: EPZ-5676 10-day IC50
[11] = test system: SKM-1 (non-MLLr) cells; assay: as above; format: cell-based; settings: Homo sapiens, 240 h, single agent
[12] = test system: MOLM-13 (MLL-AF9) cells; assay: Example 7 primary screen: 300 nM EPZ-5676 pre-treatment, second compound 72 h, ATPLite, GI100 shift; format: cell-based, human; settings: Homo sapiens, 264 h; MOLM-13; single agent; read-out: EPZ-5676 11-day (Primary screen) IC50
[13] = test system: SKM-1 (non-MLLr) cells; assay: as above; format: cell-based, human; settings: Homo sapiens, 264 h; SKM-1; single agent; read-out: EPZ-5676 11-day (Primary screen) IC50
[14] = test system: ML-2 (MLL-AF6) cells; assay: Example 7 retest: EPZ-5676 pre-treatment, second compound 72 h, Cell Titer Glo, growth inhibition; format: cell-based; settings: 240 h, single agent, read-out: EPZ-5676 10-day IC50
[15] = test system: MOLM-13 (MLL-AF9) cells; assay: as above; format: cell-based; settings: Homo sapiens, 240 h, single agent
[16] = test system: RS4-11 (MLL-AF4) cells; assay: as above; format: cell-based; settings: Homo sapiens, 240 h, single agent, read-out: EPZ-5676 10-day IC50
[17] = 14 day treatment, 156 nM Compound A2 or 63 nM Ara-C

`Nc1ccn([C@@H]2O[C@H](CO)[C@@H](O)[C@@H]2O)c(=O)n1` [Ara-C, cytarabine] was tested, and the “Combination effect with Compound A2” value ([1]; MV4-11, 7 Day Cotreatment (Example 1)) was “Synergy (A combination index less than one indicates synergy)”, the “Antiproliferative combination effect after Compound A2 washout” value ([1]; MV4-11, Compound A2 washed out prior to addition of the SOC agent) was “maintained” and the “Antiproliferative combination effect with Compound A2” value ([1]; MV4-11, pre-treatment model, no Compound A2 washout) was “synergistic”. For the same compound, the “Combination effect with Compound A2 (Table 2)” value (from here on “Combination effect … (Table 2)”) ([1]; MV4-11 MLL-AF4) was “synergistically”, the “Combination effect … (Table 2)” value ([2]; SKM-1 AML: Non-rearranged) was “did not act synergistically” and the “Effect of Compound A2 on antiproliferative activity of the second agent” value ([2]; SKM-1 non-MLL-rearranged (Example 5)) was “did not affect”. The “Combination effect with Compound A2 (Table 4)” value ([3]; MOLM-13 (MLL-AF9), 7 Day Cotreatment Model) was “Strong Synergy”, the “Combination effect with Compound A2” value ([3]; MOLM-13, 4 + 3 Model (4 days Compound A2 pretreatment, then 3 days co-treatment)) was “Synergy (A combination index less than one indicates synergy)” and the “Combination effect with Compound A2” value ([3]; MOLM-13, 7 Day Cotreatment (Example 1)) was “Synergy (A combination index less than one indicates synergy)”. The “Combination effect, reverse order of addition” value ([3]; MOLM-13, Ara-C 3 days, then Compound A2 and Ara-C co-treatment 7 days) was “Synergy (Drug synergy was statistically defined by CI values less than 1)”, the “Combination effect, reverse order of addition with Ara-C washout” value ([3]; MOLM-13, Ara-C 3 days) was “Combination benefit is maintained” and the “Combination effect, reverse order of addition with Ara-C washout” value ([3]; MOLM-13, Ara-C 3 days, listed as cytarabine) was “essentially the same level of synergistic cell killing”. The “Antiproliferative combination effect after Compound A2 washout” value ([3]; MOLM-13, Compound A2 washed out prior to addition of the SOC agent) was “durable combination benefit; also recorded: maintained”, the “Antiproliferative combination effect with Compound A2” value ([3]; MOLM-13, pre-treatment model, no Compound A2 washout) was “synergistic” and the “Combination effect … (Table 2)” value [3] was “Synergy (Drug synergy was statistically defined by CI values less than 1)”. The “Combination effect … (Table 2)” value ([3]; listed as cytarabine) was “synergistically”, the “Differentiation markers CD11b and CD14” value [4] was “time and concentration dependent up-regulation” and the “Combination effect with Compound A2 (Table 3)” value [5] was “Synergy (Drug synergy was statistically defined by CI values less than 1)”. The “Combination effect with Compound A2 (Table 3)” value [6] was “Synergy (Drug synergy was statistically defined by CI values less than 1)”, the “Apoptosis in combination with Compound A2” value ([7]; 156 nM Compound A2 + 63 nM Ara-C) was “enhance apoptosis” and the “Sub-G1 cell population in combination with Compound A2” value ([7]; 156 nM Compound A2 + 63 nM Ara-C, at 10 and 14 days) was “significant increase”. For the same compound, the “Apoptotic cell population, single agent” value [7, 17] was “modest increase” and the “Sub-G1 cell population, single agent” value [7, 17] was “minimal effect”.

With `CC(C)N(C[C@H]1O[C@@H](n2cnc3c(N)ncnc32)[C@H](O)[C@@H]1O)[C@H]1C[C@@H](CCc2nc3cc(C(C)(C)C)ccc3[nH]2)C1` [Compound A2, pinometostat] the IC50 ([8]; OCI-AML-4 (MLL-ENL), read-out: EPZ-5676 10-day IC50) was > 3000 nM, the IC50 ([8]; OCI-AML-4, read-out: EPZ-5676 10-day (Retest) IC50) was > 3000 nM and the IC50 [9] was > 3000 nM. For the same compound, the IC50 [10] was > 3000 nM, the IC50 ([11]; SKM-1 (non-MLLr), read-out: EPZ-5676 10-day IC50) was > 3000 nM and the IC50 ([11]; SKM-1, read-out: EPZ-5676 10-day (Retest) IC50) was > 3000 nM. The IC50 [12] was 150 nM, the IC50 [13] was > 3000 nM and the IC50 [14] was > 3000 nM. For the same compound, the “Combination effect with T0070907 (PPAR antagonist)” value ([3]; MOLM-13, co-treatment model (Example 8)) was “Synergy (Drug synergy was statistically defined by CI values less than 1)”, the IC50 ([15]; MOLM-13 (MLL-AF9), read-out: EPZ-5676 10-day IC50) was 75 nM and the IC50 ([15]; MOLM-13, read-out: EPZ-5676 10-day (Retest) IC50) was 75 nM. The IC50 [16] was > 3000 nM.

— patent US20190083521A1, “COMBINATION THERAPY FOR TREATING CANCER” (Epizyme, Inc., priority 2014, published 2019)
